Experimental data published in US11510921B2, “Bromocriptine formulations” (VEROSCIENCE LLC, priority 2017, dated 2022).
Counter-ions that a name gives are not always drawn.

Columns and labels:
[1] = Browning (degradation) reaction of bromocriptine with excipients in heated aqueous suspension; type: physicochemical
Description: A series of reaction vessels were prepared containing various combinations of bromocriptine mesylate, Mg stearate, and/or lactose, with or without citric acid, in aqueous suspension and reacted at 60° C. for 55 hours. Additionally, samples were prepared wherein the Mg stearate was replaced/substituted with stearic acid.
2 ml of distilled water was added to the samples, which were then mixed by vortexing, placed in a reaction chamber with thermostat set at 50° C. for 24 hours, then (after 24 hours) set at 60° C. The color change of the sample solutions/mixtures were evaluated by comparing the color of the solution with a Standardized Color Chart; the color intensities of the sample solutions/mixtures (from clear to dark brown) was graded at specified time points from time 0 to time 55 hours (see FIG. 2). In FIG. 2, a number “0” indicates a clear solution or white suspension; a number “40” represents the darkest solution/suspension observed.

[2] = Water solubility of formulations versus traditional formulation (Table 11); settings: 20 C
Description: (§1) Effect of constituents on the stability and solubility of bromocriptine formulations. […] The stability and solubility of the formulations are assessed versus a traditional formulation of bromocriptine mesylate as described in Table 1.

[3] = Heat and humidity stability of formulations versus traditional formulation (Table 11); settings: 40 C and 75% RH; short chain saccharide substituted for lactose
Description: as §1

CC(C)C[C@H]1C(=O)N2CCC[C@H]2[C@]2(O)O[C@](NC(=O)[C@@H]3C=C4c5cccc6[nH]c(Br)c(c56)C[C@H]4N(C)C3)(C(C)C)C(=O)N12 [bromocriptine, (5′α)-2-bromo-12′-hydroxy-2′-(1-methylethyl)-5′-(2-methylpropyl)-ergotaman-3′,6′,18-trione]
bromocriptine degradation and browning reaction ([1]; addition of citric acid and substitution of Mg stearate with stearic acid): attenuated bromocriptine degradation and the browning reaction by the greatest magnitude
bromocriptine degradation and browning reaction ([1]; addition of citric acid, Mg stearate alone or Mg stearate and lactose): attenuated bromocriptine degradation and the browning reaction
browning reaction ([1]; bromocriptine exposed to both Mg stearate and lactose): A more intense browning reaction occurred
browning reaction ([1]; bromocriptine with Mg stearate in aqueous environment, absence of lactose): a browning product was produced
bromocriptine degradation ([1]; substitution of Mg stearate with solid castor oil, compared with stearic acid): attenuated bromocriptine degradation to an even greater extent
bromocriptine degradation and browning reaction ([1]; substitution of Mg stearate with stearic acid, with or without lactose): attenuated bromocriptine degradation and the browning reaction

CC(C)C[C@H]1C(=O)N2CCC[C@H]2[C@]2(O)O[C@](NC(=O)[C@@H]3C=C4c5cccc6[nH]c(Br)c(c56)C[C@H]4N(C)C3)(C(C)C)C(=O)N12 [Bromocriptine Mesylate, (5′α)-2-bromo-12′-hydroxy-2′-(1-methylethyl)-5′-(2-methylpropyl)-ergotaman-3′,6′,18-trione monomethanesulfonate salt]
Relative Improvement in Water Solubility Versus Traditional Bromocriptine Mesylate Pharmaceutical Formulation ([2]; fatty acid or triglyceride + short chain saccharide): −
Relative Improvement in Water Solubility Versus Traditional Bromocriptine Mesylate Pharmaceutical Formulation ([2]; fatty acid or triglyceride substituted for Mg stearate): −
Relative Improvement in Water Solubility Versus Traditional Bromocriptine Mesylate Pharmaceutical Formulation ([2]; short chain saccharide substituted for lactose): −
Relative Improvement In Heat & Humidity Stability Versus Traditional Bromocriptine Mesylate Pharmaceutical Formulation [3]: +
